Literature values as cited in patent publication US20100247552A1, “PAK MODULATORS” (MASSACHUSETTS INSTITUTE OF TECHNOLOGY, priority 2006, published 2010).

Assays:
[1] = target: T1, PAK4 (Homo sapiens, UniProt O96013)
[2] = target: T2, PAK5 (Homo sapiens, UniProt Q9P286)
[3] = target: T3, PAK6 (Homo sapiens, UniProt Q9NQU5)
[4] = target: T1, PAK4; conditions: 10 μM compound
[5] = target: T2, PAK5; conditions: 10 μM compound
[6] = target: T3, PAK6; conditions: 10 μM compound
[7] = test system: human cancer cell migration; conditions: 40 μM; interferes with formation of active Cdc42/Rac1 and PAK complex
[8] = solvents
[9] = test system: PAK; conditions: probably competitive inhibition of ATP binding; units printed within the value (nM and μM); read-out: IC50 for inhibition of PAK kinase activity

T3 sequence (Q9NQU5 whole entry): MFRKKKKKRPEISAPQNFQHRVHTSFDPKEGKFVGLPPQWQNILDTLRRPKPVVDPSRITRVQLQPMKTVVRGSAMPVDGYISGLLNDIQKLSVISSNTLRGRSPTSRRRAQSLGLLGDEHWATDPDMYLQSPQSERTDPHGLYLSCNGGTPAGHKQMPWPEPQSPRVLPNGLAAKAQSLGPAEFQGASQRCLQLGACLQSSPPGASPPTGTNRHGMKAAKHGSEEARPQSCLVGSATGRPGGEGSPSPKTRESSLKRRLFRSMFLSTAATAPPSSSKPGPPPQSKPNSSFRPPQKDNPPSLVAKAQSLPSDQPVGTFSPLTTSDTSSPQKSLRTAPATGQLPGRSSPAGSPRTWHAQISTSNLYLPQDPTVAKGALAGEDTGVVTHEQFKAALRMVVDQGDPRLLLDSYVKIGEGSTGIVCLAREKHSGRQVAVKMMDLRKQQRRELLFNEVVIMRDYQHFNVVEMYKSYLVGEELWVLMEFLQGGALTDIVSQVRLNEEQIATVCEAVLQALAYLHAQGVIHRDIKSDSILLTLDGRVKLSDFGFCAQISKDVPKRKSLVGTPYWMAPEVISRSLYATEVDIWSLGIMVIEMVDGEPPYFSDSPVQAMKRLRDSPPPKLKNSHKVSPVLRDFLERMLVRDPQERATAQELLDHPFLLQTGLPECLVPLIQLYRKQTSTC
T2 sequence (Q9P286 whole entry): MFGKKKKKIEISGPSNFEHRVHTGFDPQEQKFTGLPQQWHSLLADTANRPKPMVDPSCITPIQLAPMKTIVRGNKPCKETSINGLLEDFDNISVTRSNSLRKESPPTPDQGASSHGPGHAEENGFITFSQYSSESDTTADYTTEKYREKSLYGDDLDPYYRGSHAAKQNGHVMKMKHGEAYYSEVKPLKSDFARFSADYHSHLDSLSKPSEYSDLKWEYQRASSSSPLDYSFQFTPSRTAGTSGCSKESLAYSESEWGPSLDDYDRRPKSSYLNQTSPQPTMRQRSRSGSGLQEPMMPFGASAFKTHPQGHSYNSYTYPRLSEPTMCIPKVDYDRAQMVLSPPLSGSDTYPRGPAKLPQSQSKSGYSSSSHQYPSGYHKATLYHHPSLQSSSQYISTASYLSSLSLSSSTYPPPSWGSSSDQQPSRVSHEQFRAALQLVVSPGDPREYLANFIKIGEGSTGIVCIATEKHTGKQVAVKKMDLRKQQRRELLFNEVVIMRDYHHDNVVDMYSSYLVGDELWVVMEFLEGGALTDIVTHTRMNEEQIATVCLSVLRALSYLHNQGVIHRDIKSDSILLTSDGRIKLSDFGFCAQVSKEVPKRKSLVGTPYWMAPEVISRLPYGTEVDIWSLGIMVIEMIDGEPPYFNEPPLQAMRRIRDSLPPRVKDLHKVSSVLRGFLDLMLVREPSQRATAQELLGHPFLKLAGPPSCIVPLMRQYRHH
T1 sequence (O96013 291-591 limits assumed): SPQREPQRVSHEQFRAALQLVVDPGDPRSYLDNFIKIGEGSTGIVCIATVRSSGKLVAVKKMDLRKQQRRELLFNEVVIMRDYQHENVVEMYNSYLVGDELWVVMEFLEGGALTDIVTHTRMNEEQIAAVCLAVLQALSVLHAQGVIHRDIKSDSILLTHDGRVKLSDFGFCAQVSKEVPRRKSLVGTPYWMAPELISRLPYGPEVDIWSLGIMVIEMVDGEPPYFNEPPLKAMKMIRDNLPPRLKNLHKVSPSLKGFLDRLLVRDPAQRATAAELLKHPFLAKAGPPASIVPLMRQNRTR

| Structure (SMILES) | Tm Shift PAK4 [1] [°C] | Tm Shift PAK5 [2] [°C] | Tm Shift PAK6 [3] [°C] | % Activity at 10 μM PAK4 [4] [%] | % Activity at 10 μM PAK5 [5] [%] | % Activity at 10 μM PAK6 [6] [%] | Effect on human cancer cell migration [7] | Solubility [8] | IC50 [9] [nM] |
| --- | --- | --- | --- | --- | --- | --- | --- | --- | --- |
| C[C@]12OC(C[C@]1(O)C(=O)O)n1c3ccccc3c3c4c(c5c6ccccc6n2c5c31)CNC4=O [K252a] | 4.5 ± 0.3 | 5.9 ± 0.3 | 8.6 ± 1.0 | 16 | 22 | 16 | – | – | – |
| CCN(CC)CCNC(=O)c1c(C)[nH]c(/C=C2\C(=O)Nc3ccc(Cl)cc32)c1C [SU11652] | 6.4 ± 1.2 | 5.3 ± 0.2 | 5.3 ± 0.3 | 34 | 43 | 75 | – | – | – |
| CCn1cnc2c(Nc3cccc(Cl)c3)nc(NC3CCCCC3N)nc21 (stereo not drawn) [Cdkl Inhibitor] | 7.0 ± 1.5 | 7.1 ± 0.3 | 7.0 ± 0.3 | 56 | 12 | 23 | – | – | – |
| Cc1cc(O)c2c(c1)C(=O)c1cc(O)cc(O)c1C2=O [Emodin, 1,3,8-Tri-hydroxy-6-methyl-anthra-quinone] | – | – | – | – | – | – | inhibits human cancer cell migration | soluble in DMSO, ethanol, or 1 N dilute aqueous ammonia | – |
| NCC(=O)Nc1ccc(-n2nc(C(F)(F)F)cc2-c2ccc3c(ccc4ccccc43)c2)cc1 [OSU-03012, 2-amino-N-{4-[5-(2-phenanthrenyl)-3-(trifluoromethyl)-1H-pyrazol-1-yl]-phenyl}acetamide] | – | – | – | – | – | – | – | soluble in organic solvents such as DMSO, ethanol, and DMF | 500 to 1000 |
| Nc1nc(Nc2ccc(S(N)(=O)=O)cc2)nn1C(=S)Nc1c(F)cccc1F [Cdk 1/2 Inhibitor III] | 6.5 ± 0.2 | 5.6 ± 0.3 | 5.6 ± 0.8 | 62 | 7.0 | 18 | – | – | – |
| CN[C@@H]1C[C@H]2O[C@@](C)([C@@H]1OC)n1c3ccccc3c3c4c(c5c6ccccc6n2c5c31)C(=O)NC4 [Staurosporine] | – | – | – | – | 0 | 0 | – | – | – |
